Patent US12059472B2 (Bayer Aktiengesellschaft, priority 2016, dated 2024)

Assays:
[1] = test system: NCI-H292: human mucoepidermoid lung carcinoma cells; experiment: Cytotoxic effect on NCI-H292 cells (MTT/CTG assay); assay type: cell-based; conditions: Table 2, active metabolites, MTT
Description: (§1) The cells were cultivated by the standard method as stated by the American Tissue Culture Collection (ATCC) or the Leibniz-Institut DSMZ-Deutsche Sammlung von Mikroorganismen und Zellkulturen GmbH (DSMZ) for the cell lines in question.
The cells were then incubated in an incubator at 37° C. and 5% carbon dioxide.
(§2) The cells were then incubated in an incubator at 37° C. and 5% carbon dioxide. After 48 h, the medium was replaced. […] To this end, the MTT reagent was incubated with the cells for 4 h, followed by lysis of the cells overnight by addition of the detergent. The dye formed was detected at 570 nm (Infinite M1000 pro, Tecan).

[2] = test system: SK-HEP-1: human liver cell cancer line; experiment: Cytotoxic effect on SK-HEP-1 cells (MTT assay); assay type: cell-based; conditions: SK-HEP1, Table 2, active metabolites
Description: as §1
as §2, with “Tecan). The measured data were used to calculate the IC50 of the growth inhibition using the DRC (dose response curve). The proliferation of cells which were not treated with test substance but were otherwise identically treated was defined as the 100% figure.” for “Tecan).”

[3] = test system: KPL4: human breast cancer cell line; experiment: Cytotoxic effect on KPL4 cells (MTT assay); assay type: cell-based; conditions: Table 2, active metabolites
Description: The analysis of the cytotoxic effects of the ADCs was carried out with various cell lines: • NCI-H292: human mucoepidermoid lung carcinoma cells, ATCC-CRL-1848, standard medium: RPMI 1640 (Biochrom; #FG1215, stab. glutamine)+10% FCS (Sigma; #F2442), TWEAKR-positive; EGFR-positive. • BxPC3: human pancreas carcinoma cells, ATCC-CRL-1687, standard medium: RPMI 1640 (Biochrom; #FG1215, stab. glutamine)+10% FCS (Sigma; #F2442), TWEAKR-positive. • LoVo human colorectal cancer cells, ATCC No. CCL-229, cultivation for MTT assay: standard medium: Kaighn's+L-glutamine (Invitrogen 21127)+10% heat inactivated FCS (from Gibco, No. 10500-064). Cultivation for CTG assay: RPMI 1640 (Biochrom; #FG1215, stab. glutamine)+10% FCS (Sigma #F2442). […]
The cells were cultivated by the standard method, with the growth media specified under C-1a. […] After 96 h, the cell proliferation was detected using the MTT assay (ATCC, Manassas, Virginia, USA, catalogue No. 30-1010K). […] The dye formed was detected at 570 nm (Infinite M1000 pro, Tecan). The measured data were used to calculate the IC50 of the growth inhibition using the DRC (dose response curve). […]

[4] = Caco-2 flux assay for cell permeability; assay type: in vitro ADME; conditions: human; Caco-2, basal to apical, 2 hours
Description: The cell permeability of a substance can be investigated by means of in vitro testing in a flux assay using Caco-2 cells [M. D. Troutman and D. R. Thakker, Pharm. […] For this purpose, the cells were cultured for 15-16 days on 24-well filter plates. For the determination of permeation, the respective test substance was applied in a HEPES buffer to the cells either apically (A) or basally (B) and incubated for 2 hours. After 0 hours and after 2 hours, samples were taken from the cis and trans compartments. The samples were separated by HPLC (Agilent 1200, Böblingen, Germany) using reverse phase columns. The HPLC system was coupled via a Turbo Ion Spray Interface to a Triple Quadropol mass spectrometer API 4000 (AB SCIEX Deutschland GmbH, Darmstadt, Germany).
Of critical importance for toxophors which are released intracellularly is the permeability from B to A [Papp (B-A)] and the ratio of Papp (B-A) to Papp (A-B) (efflux ratio): the lower this permeability, the slower the active and passive transport processes of the substance through the monolayer of Caco-2 cells.

For `CC(C)(C)[C@H](c1cc(-c2cc(F)ccc2F)cn1Cc1ccccc1)N(CC[C@H](N)C(=O)NCCC(=O)N[C@H](CCC(=O)O)C(=O)O)C(=O)CO` [Example M3, N-{(2S)-2-Amino-4-[{(1R)-1-[1-benzyl-4-(2,5-difluorophenyl)-1H-pyrrol-2-yl]-2,2-dimethylpropyl}(glycoloyl)amino]butanoyl}-beta-alanyl-D-glutamic acid], the IC50 [1] was 174 nM, the IC50 [2] was 14.6 nM and the IC50 [3] was 173 nM. The Papp B→A at 2 h [4] was 0.27 ×10⁻⁶ cm/s.
